In patent US11707454B2, “Topical roflumilast formulation having antifungal properties” (ARCUTIS BIOTHERAPEUTICS, INC., priority 2020, dated 2023):
Converted amounts (≈) assume the structure as drawn. Read-outs that look alike come from different tables or passages of the source.

Assays:
[1] = test system: C. parapsilosis (ATCC 22019); test: in vitro micro-dilution susceptibility assay (method of Rojas); type: cell-based; settings: C. parapsilosis (22019); for MIC: Lodderomyces parapsilosis, read-out: minimum inhibition concentration (MIC)
Procedure: (§1) The in vitro susceptibility of Malassezia species to roflumilast was determined utilizing three Candida species as internal control isolates for all testing. These three isolates were C. albicans American Type Culture Collection (ATCC) 90028, C. krusei (ATCC 6258) and C. parapsilosis (ATCC 22019). In addition to testing roflumilast all susceptibility assays were conducted using ketoconazole and hydrocortisone as positive and negative control compounds, respectively. All assays were placed within a humidified incubator set to 32° C. for a total of seven days. Each assay was evaluated after 12 hours of incubation and, every 24 hours post incubation for a total of seven days. The assays were evaluated for visual growth of each pathogen in the no treatment control as well as determination of minimum inhibition concentration (MIC) values. The concentration that provides a 3-log10 CFU/mL reduction in fungal burden from baseline at day 0 was defined as the minimum fungicidal concentration (MHC) and was determined by quantifying fungal burdens found in the microplate at day seven.
(§2) The method of Rojas (Rojas F D, et al. Antifungal susceptibility of Malassezia furfur, Malassezia sympodialis, and Malassezia globose to azole drugs and amphotericin B evaluated using a broth microdilution method. 2014. Medical Mycology. 52:641-646) was used in which the liquid broth medium was RPMI 1640 with added 1.8% glucose, 1% peptone, 0.5% ox-bile, 0.5% malt extract, 1% glycerol, 0.5% Tween 40 and 0.05% Tween 80. Round bottom 96 well microplates were used. The inoculums were prepared in sterile saline and diluted to a final targeted concentration of 0.5×10^5 to 2.5×10^5 CFU/mL in supplemented RPMI. […] For the internal control isolate C. parapsilosis (ATCC 22019) the expected CLSI values for ketoconazole of 0.03-0.25 (at 24 hours) and 0.06-0.5 (at 48 hours) did agree with the 2-day value (Table A) of 0.5.

M. furfur (ATCC 12078) = test: as above; type: cell-based; settings: for MIC: Malassezia furfur, read-out: minimum inhibition concentration (MIC)
Procedure: as §1, §2

M. furfur (ATCC 44344) = test: as above; type: cell-based; settings: for MIC: Malassezia furfur, read-out: minimum inhibition concentration (MIC)
Procedure: as §1, §2

C. krusei (ATCC 6258) [2] = test: as above; type: cell-based; settings: for MIC: Pichia kudriavzevii, read-out: minimum inhibition concentration (MIC)
Procedure: as §1, §2

M. furfur (ATCC 14521) = test: as above; type: cell-based; settings: for MIC: Malassezia furfur, read-out: minimum inhibition concentration (MIC)
Procedure: as §1, §2

[3] = test system: M. globose (ATCC MYA-4889); test: as above; type: cell-based
Procedure: as §1, §2

[4] = test system: M. restricta (ATCC MYA-4611); test: as above; type: cell-based
Procedure: as §1, §2

C. albicans (ATCC 90028) = test: as above; type: cell-based; settings: for MIC: Candida albicans, read-out: minimum inhibition concentration (MIC)
Procedure: as §1, §2

C. krusei (ATCC 6258) [5] = settings: cited from earlier work
[6] = test system: C. parapsilosis (ATCC 22019); settings: cited from earlier work

minimum inhibition concentration (MIC) ([1]; Time 0.5 days): NGO
MIC ([1]; ATCC22019, 24 h, Time 1 days): 0.5 µg/mL (≈ 0.941 µM)
MIC ([1]; ATCC22019, 48 h, Time 2 days): 0.5 µg/mL (≈ 0.941 µM)
MIC ([1]; ATCC22019, 72 h, Time 3 days): 0.5 µg/mL (≈ 0.941 µM)
MIC ([1]; ATCC22019, 96 h, Time 4 days): 0.5 µg/mL (≈ 0.941 µM)
MIC ([1]; ATCC22019, 120 h, Time 5 days): 1 µg/mL (≈ 1.88 µM)
MIC ([1]; ATCC22019, 144 h, Time 6 days): 1 µg/mL (≈ 1.88 µM)
MIC ([1]; ATCC22019, 168 h, Time 7 days): 2 µg/mL (≈ 3.76 µM)
MIC (M. furfur (ATCC 12078); ATCC12078, 48 h, Time 2 days): 0.06 µg/mL (≈ 0.113 µM)
MIC (M. furfur (ATCC 12078); ATCC12078, 72 h, Time 3 days): 0.06 µg/mL (≈ 0.113 µM)
MIC (M. furfur (ATCC 12078); ATCC12078, 96 h, Time 4 days): 0.06 µg/mL (≈ 0.113 µM)
MIC (M. furfur (ATCC 12078); ATCC12078, 120 h, Time 5 days): 0.06 µg/mL (≈ 0.113 µM)
MIC (M. furfur (ATCC 12078); ATCC12078, 144 h, Time 6 days): 0.06 µg/mL (≈ 0.113 µM)
MIC (M. furfur (ATCC 12078); ATCC12078, 168 h, Time 7 days): 0.25 µg/mL (≈ 0.47 µM)
minimum inhibition concentration (MIC) (M. furfur (ATCC 12078); Time 0.5 days): NGO
minimum inhibition concentration (MIC) (M. furfur (ATCC 12078); Time 1 days): NGO
MIC (M. furfur (ATCC 44344); ATCC44344, 48 h, Time 2 days): 0.125 µg/mL (≈ 0.235 µM)
MIC (M. furfur (ATCC 44344); ATCC44344, 72 h, Time 3 days): 0.125 µg/mL (≈ 0.235 µM)
MIC (M. furfur (ATCC 44344); ATCC44344, 96 h, Time 4 days): 0.125 µg/mL (≈ 0.235 µM)
MIC (M. furfur (ATCC 44344); ATCC44344, 120 h, Time 5 days): 0.25 µg/mL (≈ 0.47 µM)
MIC (M. furfur (ATCC 44344); ATCC44344, 144 h, Time 6 days): 0.25 µg/mL (≈ 0.47 µM)
MIC (M. furfur (ATCC 44344); ATCC44344, 168 h, Time 7 days): 0.125 µg/mL (≈ 0.235 µM)
minimum inhibition concentration (MIC) (M. furfur (ATCC 44344); Time 0.5 days): NGO
minimum inhibition concentration (MIC) (M. furfur (ATCC 44344); Time 1 days): NGO
MIC (C. krusei (ATCC 6258) [2]; ATCC6258, 24 h, Time 1 days): 4 µg/mL (≈ 7.53 µM)
MIC (C. krusei (ATCC 6258) [2]; ATCC6258, 48 h, Time 2 days): 8 µg/mL (≈ 15.1 µM)
MIC (C. krusei (ATCC 6258) [2]; ATCC6258, 72 h, Time 3 days): 16 µg/mL (≈ 30.1 µM)
MIC (C. krusei (ATCC 6258) [2]; ATCC6258, 96 h, Time 4 days): 16 µg/mL (≈ 30.1 µM)
MIC (C. krusei (ATCC 6258) [2]; ATCC6258, 120 h, Time 5 days): 16 µg/mL (≈ 30.1 µM)
MIC (C. krusei (ATCC 6258) [2]; ATCC6258, 144 h, Time 6 days): 32 µg/mL (≈ 60.2 µM)
MIC (C. krusei (ATCC 6258) [2]; ATCC6258, 168 h, Time 7 days): 32 µg/mL (≈ 60.2 µM)
minimum inhibition concentration (MIC) (C. krusei (ATCC 6258) [2]; Time 0.5 days): NGO
MIC (M. furfur (ATCC 14521); ATCC14521, 48 h, Time 2 days): 0.03 µg/mL (≈ 0.0565 µM)
MIC (M. furfur (ATCC 14521); ATCC14521, 72 h, Time 3 days): 0.06 µg/mL (≈ 0.113 µM)
MIC (M. furfur (ATCC 14521); ATCC14521, 96 h, Time 4 days): 0.06 µg/mL (≈ 0.113 µM)
MIC (M. furfur (ATCC 14521); ATCC14521, 120 h, Time 5 days): 0.06 µg/mL (≈ 0.113 µM)
MIC (M. furfur (ATCC 14521); ATCC14521, 144 h, Time 6 days): 0.06 µg/mL (≈ 0.113 µM)
MIC (M. furfur (ATCC 14521); ATCC14521, 168 h, Time 7 days): 0.25 µg/mL (≈ 0.47 µM)
minimum inhibition concentration (MIC) (M. furfur (ATCC 14521); Time 0.5 days): NGO
minimum inhibition concentration (MIC) (M. furfur (ATCC 14521); Time 1 days): NGO
minimum inhibition concentration (MIC) ([3]; Time 0.5 days): NGO
minimum inhibition concentration (MIC) ([3]; Time 1 days): NGO
minimum inhibition concentration (MIC) ([3]; Time 2 days): NGO
minimum inhibition concentration (MIC) ([3]; Time 3 days): NGO
minimum inhibition concentration (MIC) ([3]; Time 4 days): NGO
minimum inhibition concentration (MIC) ([3]; Time 5 days): NGO
minimum inhibition concentration (MIC) ([3]; Time 6 days): NGO
minimum inhibition concentration (MIC) ([3]; Time 7 days): NGO
minimum inhibition concentration (MIC) ([4]; Time 0.5 days): NGO
minimum inhibition concentration (MIC) ([4]; Time 1 days): NGO
minimum inhibition concentration (MIC) ([4]; Time 2 days): NGO
minimum inhibition concentration (MIC) ([4]; Time 3 days): NGO
minimum inhibition concentration (MIC) ([4]; Time 4 days): NGO
minimum inhibition concentration (MIC) ([4]; Time 5 days): NGO
minimum inhibition concentration (MIC) ([4]; Time 6 days): NGO
minimum inhibition concentration (MIC) ([4]; Time 7 days): NGO
MIC (C. albicans (ATCC 90028); ATCC90028, 24 h, Time 1 days): 0.06 µg/mL (≈ 0.113 µM)
MIC (C. albicans (ATCC 90028); ATCC90028, 48 h, Time 2 days): 0.06 µg/mL (≈ 0.113 µM)
MIC (C. albicans (ATCC 90028); ATCC90028, 72 h, Time 3 days): 0.125 µg/mL (≈ 0.235 µM)
MIC (C. albicans (ATCC 90028); ATCC90028, 96 h, Time 4 days): 0.25 µg/mL (≈ 0.47 µM)
MIC (C. albicans (ATCC 90028); ATCC90028, 120 h, Time 5 days): 0.25 µg/mL (≈ 0.47 µM)
MIC (C. albicans (ATCC 90028); ATCC90028, 144 h, Time 6 days): 0.25 µg/mL (≈ 0.47 µM)
MIC (C. albicans (ATCC 90028); ATCC90028, 168 h, Time 7 days): 0.25 µg/mL (≈ 0.47 µM)
minimum inhibition concentration (MIC) (C. albicans (ATCC 90028); Time 0.5 days): NGO
SMILES: CC(=O)N1CCN(c2ccc(OCC3COC(Cn4ccnc4)(c4ccc(Cl)cc4Cl)O3)cc2)CC1 (centres unmarked) [Ketoconazole]
CLSI expected values (C. krusei (ATCC 6258) [5]; at 24 hours): 0.12-1
CLSI expected values (C. krusei (ATCC 6258) [5]; at 48 hours): 0.25-1
expected CLSI values ([6]; at 24 hours): 0.03-0.25
expected CLSI values ([6]; at 48 hours): 0.06-0.5
